Patent publication US9937178B2, “Methods of identifying and using MDM2 inhibitors” (DUKE UNIVERSITY, priority 2011, dated 2018)

Experiments:
Assay type in all cases: cell-based
Mcl-1 = test: Immunoblot of Mcl-1 protein levels; conditions: 1 μM lapatinib
Method: FIG. 3 is a set of photographs showing that Mcl-1 is stabilized in lapatinib-resistant cells. […] FIG. 3B is a set of immunoblots showing the levels of HER2 and phospho-HER2 in untreated cells and cells treated with lapatinib. Cells were treated with or without lapatinib (1 μM) for 24 hours in the presence of the caspase inhibitor z-VAD (50 μM). The cells were harvested and cell lysates were immunoblotted using antibodies against phospho-HER2 (Y877) and total HER2. FIG. 3C is an immunoblot for phospho-AKT (T308) and total AKT. BT474 and rBT474 cells were treated with 1 μM lapatinib in the presence of 50 μM z-VAD. At the indicated time points, the cells were harvested and immunoblotted. FIG. 3D is an immunoblot for phospho-Erl1/2(T202/Y204) and total Erk1/2. BT474 and rBT474 cells were treated with 1 μM lapatinib in the presence of 50 μM z-VAD. At the indicated time points, the cells were harvested and immunoblotted. FIG. 3E is an immunoblot for Mcl-1, Bim, and Actin. BT474 and rBT474 cells (left) or SKBR3 and rSKBR3 cells (right) were treated with 1 μM lapatinib. The cells were harvested at the indicated time points and immunoblotted. FIG. 3F is an autoradiograph showing the ^35[S] radioactivity in lysates containing ^35[S]-Mcl-1 at the indicated time points. ^35[S]-labeled Mcl-1 protein was incubated in cell-free lysates prepared from BT474 and rBT474 cells (top) or SKBR3 and rSKBR3 cells (bottom). FIG. 3G is an autograph showing the ^35[S]-labeled Mcl-1 to monitor Mcl-1 stability over time. The ^35[S]-labeled Mcl-1 was incubated in lysates prepared from rBT474 cells treated with or without 1 μM lapatinib. FIG. 3H is an immunoblot for HA. SKBR3 or rSKBR3 cells were co-transfected with FLAG-Mcl-1 and HA-Ubiquitin (Ub). […] Cells were harvested after treatment with 10 μM MG 132 for 4 hours. FLAG-Mcl-1 was retrieved by immunoprecipitation using anti-flag agarose, and Mcl-1 ubiquitylation was analyzed by immunoblotting for HA (*non-specific band, **IgG heavy chain).

CAS mRNA = test: Quantitative real-time PCR of CAS mRNA; conditions: sensitive or resistant cells
Huwe1 = test: Immunoblot of Huwe1 protein levels and stability
Method: FIG. 13 is a set of immunoblots showing MDM2-mediated ubiquitylation and degradation of Huwe1 in lapatinib-resistant cells. […] Cells treated with 1 μM lapatinib were harvested at various time points and immunoblotted. […] FIG. 13B is an immunoblot for HA and actin. BT474 and rBT474 cells were transiently transfected with HA-tagged Huwe1 and subsequently treated with 50 μg/ml cycloheximide (CHX) and 1 μM lapatinib. FIG. 13C is an immunoblot for Huwe1 and MDM2. Immunoprecipitation was carried out using H1299 cell lysates and anti-Huwe1 antibody (or control IgG). FIG. 13D is an immunoblot for HA or MDM2 after immunoprecipitation with HA. BT474 cells were transfected with HA-tagged Huwe1 encoding the full-length protein, residues 1-2474, or residues 2473-4374. […] H1299 cells were transfected with empty vector, HA-Huwe1^W1202A, or HA-Huwe1 wild type. FIG. 13F is an immunoblot for Huwe1 and Actin. BT474 cells were transfected with increasing amounts of MDM2 and harvested after 48 hours. FIG. 13G is an immunoblot for Huwe1, MDM2, and actin. […] FIG. 13H is an immunoblot for Huwe1. Ubiquitylation of Huwe1 was reconstituted in vitro by incubating recombinant Huwe1 protein (Huwe1^1-2474) with E1, UbcH5 (E2), ubiquitin (Ub), and recombinant MDM2 protein in reaction buffer at 37° C. for 3 hours. […] Twenty-four hours later, the cells were replated and further transfected with HA-tagged Huwe1 (wild type). Forty-eight hours after siRNA transfection, the cells were treated with 1 μM lapatinib. After 24 hours of lapatinib treatment, 50 μg/ml cycloheximide (CHX) was added to the culture medium and cells were harvested at various time points for immunoblotting.

PP5 = test: Immunoblot of PP5 protein levels; conditions: 1 μM lapatinib
Method: FIG. 7 is a set of photographs and graphs showing PP5 stability and post-cytochrome c protection in lapatinib-resistant cells. FIG. 7A is an immunoblot for caspase-9 (cleaved and non-cleaved) and cleaved caspase-3 (C9 and C3, respectively) showing rBT474 cells cultured in the absence or presence of 1 μM lapatinib for one week, as compared to BT474 cells which were maintained without lapatinib. Cytosolic lysates prepared from BT474 or rBT474 were incubated with 1 mM dATP and various amounts of cytochrome c (CC). FIG. 7B is a set of graphs showing Caspase 3 activity in the indicated cell lysates over time. Caspase-3 activity was assayed by measuring cleavage of DEVD-pNA following incubation of the cell lysates with 1 mM dATP and various concentrations of cytochrome c. FIG. 7C is an autoradiograph of ^32P and an immunoblot showing the percentage of the protein phosphorylated. In the presence of [γ-^32P]ATP, recombinant His-tagged HSP90β proteins (wild type and the indicated mutants) on nickel beads were incubated with the HSP90β-targeted kinase casein kinase 2. FIG. 7D is an autoradiograph and corresponding immunoblot showing BT474 or rBT474 cells after being cultured in the absence or presence of 1 μM lapatinib for 24 hours in the presence of z-VAD. Recombinant His-tagged HSP90β protein on nickel beads was incubated with the cell lysates in the presence of [γ-^32P]ATP. FIG. 7E is an immunoblot for phospho-Hsp90β (Ser226) and total HSP90β at various time points. […] FIG. 7F is a set of graphs showing FACS analysis for the phosphorylation status of Hsp90β (Ser255). BT474 or rBT474 cells cultured in the presence of 1 μM lapatinib for 24 hours were fixed with formaldehyde and incubated with phospho-Hsp90β (Ser255) antibody followed by an Alexa488-conjugated secondary antibody. FIG. 7G is an immunoblot for PP5 and actin at the indicated time points. BT474 and rBT474 (left) or AU565 and rAU565 cells (right) were treated with 1 μM lapatinib. FIG. 7H is an autoradiograph of immunoprecipitated FLAG-PP5 using an anti-FLAG agarose. […]

For CS(=O)(=O)CCNCc1ccc(-c2ccc3ncnc(Nc4ccc(OCc5cccc(F)c5)c(Cl)c4)c3c2)o1 [lapatinib], the Mcl-1 protein levels (Mcl-1; resistant cells) was “increased”, the Mcl-1 protein levels (Mcl-1; sensitive cells) was “decreased” and the “CAS mRNA levels” value (CAS mRNA) was “did not cause a reduction”. For the same molecule, the Huwe1 protein half-life (Huwe1; lapatinib-treated rBT474 cells compared to BT474 cells, 50 μg/ml cycloheximide) was “significantly shorter”, the Huwe1 protein levels (Huwe1; parental cells, 1 μM lapatinib) was “remained stable” and the Huwe1 levels (Huwe1; resistant cells, 1 μM lapatinib) was “significantly decreased”. The PP5 levels (PP5; resistant cells) was “unaltered” and the PP5 levels (PP5; sensitive cells) was “gradual decrease”.
